{"source": "ChEMBL document CHEMBL5465560", "about": "“Selectivity Literature for EUbOPEN Chemogenomic Library” (2024)", "key": {"[1]": {"system": "Receptor-type tyrosine-protein kinase FLT3 (Homo sapiens), P36888 [UNDEFINED MUTATION]", "sequence (P36888 whole entry, looked up, change not shown)": "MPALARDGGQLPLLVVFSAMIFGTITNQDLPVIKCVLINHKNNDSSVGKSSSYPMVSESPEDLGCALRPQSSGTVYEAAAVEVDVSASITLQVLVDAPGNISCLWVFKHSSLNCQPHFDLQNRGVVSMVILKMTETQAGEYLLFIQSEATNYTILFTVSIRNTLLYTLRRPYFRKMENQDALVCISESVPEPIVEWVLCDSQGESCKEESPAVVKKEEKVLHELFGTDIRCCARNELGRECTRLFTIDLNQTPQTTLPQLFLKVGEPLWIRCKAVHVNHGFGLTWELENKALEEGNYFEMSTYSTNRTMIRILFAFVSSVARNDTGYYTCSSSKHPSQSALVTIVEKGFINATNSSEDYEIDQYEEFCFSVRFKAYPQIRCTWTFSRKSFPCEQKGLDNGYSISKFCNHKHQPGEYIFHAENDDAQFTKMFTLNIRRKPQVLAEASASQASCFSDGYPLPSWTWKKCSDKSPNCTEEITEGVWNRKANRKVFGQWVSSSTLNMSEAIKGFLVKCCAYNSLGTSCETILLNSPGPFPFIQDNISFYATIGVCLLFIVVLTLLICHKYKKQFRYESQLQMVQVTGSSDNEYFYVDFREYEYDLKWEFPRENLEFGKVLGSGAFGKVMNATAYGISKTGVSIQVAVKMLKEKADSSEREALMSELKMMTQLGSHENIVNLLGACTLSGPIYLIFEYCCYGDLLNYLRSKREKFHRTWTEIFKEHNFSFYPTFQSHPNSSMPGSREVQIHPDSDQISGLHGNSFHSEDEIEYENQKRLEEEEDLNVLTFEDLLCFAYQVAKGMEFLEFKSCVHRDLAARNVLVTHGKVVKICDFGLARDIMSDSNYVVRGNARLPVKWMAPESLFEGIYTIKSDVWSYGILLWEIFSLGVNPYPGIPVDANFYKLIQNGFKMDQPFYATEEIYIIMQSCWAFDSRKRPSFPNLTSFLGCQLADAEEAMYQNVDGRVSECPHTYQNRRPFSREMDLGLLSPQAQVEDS", "test": "Selectivity interaction (KinomeScan (DiscoverX)) EUB0000229b FLT3", "conditions": "at 1 µM"}, "[2]": {"target": "Fibroblast growth factor receptor 1 (Homo sapiens, UniProt P11362)", "sequence (P11362 22-822 limits assumed)": "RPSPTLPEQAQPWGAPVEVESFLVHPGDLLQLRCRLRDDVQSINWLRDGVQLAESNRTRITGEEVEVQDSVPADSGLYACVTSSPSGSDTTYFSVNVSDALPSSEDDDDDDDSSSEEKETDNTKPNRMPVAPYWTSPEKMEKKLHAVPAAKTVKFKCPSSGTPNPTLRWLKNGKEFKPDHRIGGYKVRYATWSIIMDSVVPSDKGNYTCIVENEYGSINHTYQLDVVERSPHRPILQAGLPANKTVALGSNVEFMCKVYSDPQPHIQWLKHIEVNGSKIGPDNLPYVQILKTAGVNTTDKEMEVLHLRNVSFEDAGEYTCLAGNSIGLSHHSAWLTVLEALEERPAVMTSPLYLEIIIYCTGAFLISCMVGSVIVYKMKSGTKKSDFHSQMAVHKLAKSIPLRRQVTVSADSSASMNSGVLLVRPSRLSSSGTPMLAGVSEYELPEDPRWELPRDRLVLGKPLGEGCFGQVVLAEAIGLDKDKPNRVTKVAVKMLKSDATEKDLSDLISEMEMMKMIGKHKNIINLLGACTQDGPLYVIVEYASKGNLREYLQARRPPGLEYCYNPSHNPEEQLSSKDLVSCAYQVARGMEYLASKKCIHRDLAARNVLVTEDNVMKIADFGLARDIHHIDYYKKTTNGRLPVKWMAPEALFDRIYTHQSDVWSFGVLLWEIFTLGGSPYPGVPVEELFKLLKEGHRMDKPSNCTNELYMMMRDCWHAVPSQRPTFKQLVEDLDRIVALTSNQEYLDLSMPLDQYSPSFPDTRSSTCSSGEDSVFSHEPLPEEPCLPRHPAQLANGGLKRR", "test": "Selectivity interaction (Kinase panel (Z-LYTE Assay)) EUB0001632a FGFR1", "conditions": "at 10 µM"}, "[3]": {"target": "T1, Serine/threonine-protein kinase D3 (Homo sapiens) (UniProt O94806)", "T1 sequence (whole entry)": "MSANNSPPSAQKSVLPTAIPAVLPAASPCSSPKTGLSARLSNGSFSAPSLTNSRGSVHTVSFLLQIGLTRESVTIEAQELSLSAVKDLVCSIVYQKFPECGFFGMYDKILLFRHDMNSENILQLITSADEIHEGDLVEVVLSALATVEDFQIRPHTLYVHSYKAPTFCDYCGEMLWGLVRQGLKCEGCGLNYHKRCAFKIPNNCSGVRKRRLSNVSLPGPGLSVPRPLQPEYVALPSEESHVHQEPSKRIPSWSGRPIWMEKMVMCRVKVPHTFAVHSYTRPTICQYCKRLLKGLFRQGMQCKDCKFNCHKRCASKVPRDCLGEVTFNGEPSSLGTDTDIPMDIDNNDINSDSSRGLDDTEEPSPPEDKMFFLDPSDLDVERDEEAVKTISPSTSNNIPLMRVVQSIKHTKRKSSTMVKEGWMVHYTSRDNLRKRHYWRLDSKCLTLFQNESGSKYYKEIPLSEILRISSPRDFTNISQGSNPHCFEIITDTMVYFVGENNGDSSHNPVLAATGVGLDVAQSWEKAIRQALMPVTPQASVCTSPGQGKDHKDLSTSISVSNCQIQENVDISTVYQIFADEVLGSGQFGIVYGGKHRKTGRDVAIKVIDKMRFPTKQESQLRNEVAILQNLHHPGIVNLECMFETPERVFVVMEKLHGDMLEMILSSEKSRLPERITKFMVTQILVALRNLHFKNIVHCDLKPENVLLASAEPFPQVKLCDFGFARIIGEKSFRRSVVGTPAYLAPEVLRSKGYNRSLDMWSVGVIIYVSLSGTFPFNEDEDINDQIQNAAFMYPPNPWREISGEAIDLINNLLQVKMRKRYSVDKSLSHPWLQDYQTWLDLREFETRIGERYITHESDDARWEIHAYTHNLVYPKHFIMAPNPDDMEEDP", "test": "Selectivity interaction (ActivX KiNativ screen (kinase selectivity in THP-1 cell lysates)) EUB0000639a PRKD3", "format": "subcellular", "conditions": "lysate, at 0.01 µM"}, "[4]": {"target": "T2, Mitogen-activated protein kinase 13 (Homo sapiens) (UniProt O15264)", "T2 sequence (whole entry)": "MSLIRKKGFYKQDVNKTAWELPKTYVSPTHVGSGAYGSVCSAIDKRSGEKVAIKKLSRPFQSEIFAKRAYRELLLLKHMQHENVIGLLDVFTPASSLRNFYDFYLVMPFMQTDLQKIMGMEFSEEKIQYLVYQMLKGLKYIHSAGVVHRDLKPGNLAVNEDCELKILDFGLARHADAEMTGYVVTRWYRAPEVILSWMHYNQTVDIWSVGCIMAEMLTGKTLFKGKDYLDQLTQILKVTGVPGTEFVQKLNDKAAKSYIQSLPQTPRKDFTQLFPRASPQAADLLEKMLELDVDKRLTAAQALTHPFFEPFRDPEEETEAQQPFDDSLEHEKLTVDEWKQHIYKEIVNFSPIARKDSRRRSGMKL", "test": "Selectivity interaction (KinomeScan (DiscoverX)) EUB0000607a MAPK13", "conditions": "at 10 µM"}, "[5]": {"target": "Serine/threonine-protein kinase PLK1 (Homo sapiens, UniProt P53350)", "sequence (P53350 whole entry)": "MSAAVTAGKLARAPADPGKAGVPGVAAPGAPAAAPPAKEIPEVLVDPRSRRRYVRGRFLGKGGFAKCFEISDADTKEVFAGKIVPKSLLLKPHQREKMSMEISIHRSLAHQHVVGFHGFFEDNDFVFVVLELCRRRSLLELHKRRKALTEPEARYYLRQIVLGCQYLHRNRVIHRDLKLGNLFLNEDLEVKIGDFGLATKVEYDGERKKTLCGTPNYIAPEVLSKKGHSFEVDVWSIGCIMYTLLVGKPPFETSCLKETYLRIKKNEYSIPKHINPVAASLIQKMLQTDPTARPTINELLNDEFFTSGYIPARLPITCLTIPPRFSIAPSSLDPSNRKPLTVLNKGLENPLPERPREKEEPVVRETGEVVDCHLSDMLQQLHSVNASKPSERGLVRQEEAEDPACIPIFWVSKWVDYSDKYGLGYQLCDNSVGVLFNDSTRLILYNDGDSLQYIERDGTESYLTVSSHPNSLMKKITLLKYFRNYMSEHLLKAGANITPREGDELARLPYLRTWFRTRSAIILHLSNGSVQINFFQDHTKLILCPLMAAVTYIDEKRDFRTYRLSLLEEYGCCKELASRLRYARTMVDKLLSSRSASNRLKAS", "test": "Selectivity interaction (KinomeScan (DiscoverX)) EUB0000618a PLK1", "conditions": "at 10 µM"}, "[6]": {"target": "T3, Serine/threonine-protein kinase ULK1 (Homo sapiens) (UniProt O75385)", "T3 sequence (whole entry)": "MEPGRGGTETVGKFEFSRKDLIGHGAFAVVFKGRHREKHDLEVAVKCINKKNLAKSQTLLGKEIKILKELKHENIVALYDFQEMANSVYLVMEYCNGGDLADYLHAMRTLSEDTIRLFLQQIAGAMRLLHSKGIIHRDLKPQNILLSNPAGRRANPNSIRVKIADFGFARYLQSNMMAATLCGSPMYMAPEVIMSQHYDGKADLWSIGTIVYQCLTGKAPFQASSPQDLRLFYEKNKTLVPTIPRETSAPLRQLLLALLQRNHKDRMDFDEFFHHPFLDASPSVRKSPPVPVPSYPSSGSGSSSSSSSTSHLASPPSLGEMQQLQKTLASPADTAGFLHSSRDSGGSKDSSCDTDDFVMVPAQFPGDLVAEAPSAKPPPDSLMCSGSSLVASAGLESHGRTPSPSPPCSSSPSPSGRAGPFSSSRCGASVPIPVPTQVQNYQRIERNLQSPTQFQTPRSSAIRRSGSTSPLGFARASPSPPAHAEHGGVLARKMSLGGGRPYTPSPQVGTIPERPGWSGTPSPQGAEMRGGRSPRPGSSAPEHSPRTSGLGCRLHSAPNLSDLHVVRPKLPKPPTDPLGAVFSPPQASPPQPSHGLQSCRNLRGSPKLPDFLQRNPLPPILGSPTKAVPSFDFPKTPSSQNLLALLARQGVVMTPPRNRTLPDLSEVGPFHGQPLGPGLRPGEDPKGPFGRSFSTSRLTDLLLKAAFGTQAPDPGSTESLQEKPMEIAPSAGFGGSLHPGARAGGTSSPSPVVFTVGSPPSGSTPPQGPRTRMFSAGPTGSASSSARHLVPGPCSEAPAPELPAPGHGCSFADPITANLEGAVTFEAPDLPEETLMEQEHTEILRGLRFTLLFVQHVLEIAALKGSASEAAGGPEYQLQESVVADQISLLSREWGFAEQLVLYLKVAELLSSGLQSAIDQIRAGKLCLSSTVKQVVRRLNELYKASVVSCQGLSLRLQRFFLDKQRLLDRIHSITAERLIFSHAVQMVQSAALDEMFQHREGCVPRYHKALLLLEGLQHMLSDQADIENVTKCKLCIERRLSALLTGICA", "test": "Selectivity interaction (KinomeScan (DiscoverX)) EUB0000618a ULK1", "conditions": "at 10 µM"}}}
{"smiles": "COc1cc(N(C)c2ccnc3ccc(C(F)(F)F)cc23)cc(OC)c1OC", "values": [{"measurement": "% binding", "setting": "[1]", "value": 93, "unit": "%"}]}
{"smiles": "Cn1cc(-n2cnc3c(NCc4nc5cc(Cl)c(Cl)cc5[nH]4)nc(N4CCOCC4)nc32)cn1", "values": [{"measurement": "% of control", "setting": "[2]", "value": 30.2, "unit": "%"}]}
{"smiles": "CC[C@@H]1[C@H](F)C(=O)N[C@@H]1COc1nccc2cc(C(N)=O)c(OC)cc12", "note": "[ZIMLOVISERTIB]", "values": [{"measurement": "% of inhibition", "setting": "[3]", "value": 0, "unit": "%"}]}
{"smiles": "CNC(=O)Nc1ccc(-c2nc(N3CC4CCC(C3)O4)c3cnn(C4CCC5(CC4)OCCO5)c3n2)cc1", "values": [{"measurement": "% of control", "setting": "[4]", "value": 16, "unit": "%"}]}
{"smiles": "O[C@H]1CC[C@H](Nc2ncc3nc(Nc4c(F)cc(F)cc4F)n([C@H]4CCOC4)c3n2)CC1", "values": [{"measurement": "% of control", "setting": "[5]", "value": 100, "unit": "%"}, {"measurement": "% of control", "setting": "[6]", "value": 84, "unit": "%"}]}
